Experimental data reported in patent US20250206761A1, “HALOINDOLE MACROCYCLIC COMPOUNDS FOR THE TREATMENT OF CANCER” (Hoffmann-La Roche Inc., priority 2022, published 2025).

Legend:
[1] = test system: NCI-H358 (ATCC-CRL5807) cells; assay: Cell viability assay, G12C (NCI-H358); type: cell-based, human; settings: Homo sapiens; KRAS cell viability, NCI-H358, 72 hrs, Cell Counting Kit-8
Protocol: (§1) The purpose of this cellular assay was to determine the effects of test compounds on the proliferation of human cancer cell lines NCI-H358 (ATCC-CRL5807) cells, AGS (ATCC-CRL-1739) cells, SW620 (ATCC-CCL-227) over a 3-day treatment period by quantifying the amount of NADPH present at endpoint using Cell Counting Kit-8.
(§2) Cells were seeded at 5,000 cells/well (NCI-H358), 2,000 cells/well (AGS) 2,000 cells/well (SW620) in 96-well assay plates (Corning-3699) and incubated overnight. On the day of the assay, diluted compounds were then added in a final concentration of 0.5% DMSO. After 72 hrs incubation, a tenth of the volume of cell counting kit 8 (Dnjindo-CK04) was added into each well. Read the signal (OD450 minus OD650) using EnVision after 2 hrs incubation. IC50 was determined by fitting a 4-parameter sigmoidal concentration response model.

[2] = test system: phosphorylation of ERK, KRAS G12C in NCJ-H358 cells; assay: pERK inhibition assay, KRAS G12C; type: cell-based, human; settings: Homo sapiens, 4 hours
Protocol: (§3) This assay is to measure the ability of test compounds in inhibiting the phosphorylation of ERK, the downstream signaling of KRAS G12C in NCJ-H358 cells, KRAS G12D in AGS cells, and KRAS G12V in SW620. NCJ-H358 (ATCC-CRL5807) cells, AGS (ATCC-CRL-1739) cells, SW620 (ATCC-CCL-227) cells were all grown and maintained using RPMI-1640 medium (Thermo Fisher Scientific) with 10% fetal bovine serum and 1% penicillin/streptomycin. On the day prior to compound addition, cells were plated in tissue culture-treated 96 well plates (Corning-3699) at a density of 30,000 cell/well, 20,000 cell/well, 30,000 cell/well for NCJ-H358, AGS and SW620 respectively, and allowed for attachment overnight. Diluted compounds were then added in a final concentration of 0.5% DMSO. After 4 hours of incubation, the medium was removed, 100 μL of 4% formaldehyde was added, and the assay plates were incubated at room temperature for 20 minutes. The plates were then washed once with phosphate buffered saline (PBS), and permeabilized with 100 μL of chilled methanol for 10 minutes. Non-specific antibody binding to the plates was blocked using 50 μL 1×BSA blocking buffer (Thermo-37520, 10-fold dilution by Phosphate-Buffered Saline Tween (PBST) for at least 1 hour at room temperature.
(§4) The amount of phosphor-ERK was determined using an antibody specific for phosphorylated form of ERK. Primary antibody (pERK, CST-4370, Cell Signaling Technology) was diluted 1:300 in blocking buffer, with 50 μL aliquoted to each well, and incubated overnight at 4′° C. Cells was washed five times for 5 minutes with PBST. Secondary antibody ([…] anti-rabbit IgG, CST-7074, Cell Signaling Technology) was diluted 1:1000 in blocking buffer, and 50 μL was added to each well and incubated 1-2 hrs at room temperature. Cells was washed 5 times for 5 minutes with PBST, 100 μL TMB ELISA substrate (abcam-ab171523) were added and gently shake for 20 minutes. 50 μL stop solution (abcam-ab171529) were added, and then read the signal (OD450) by EnVision.
(§5) IC50 was determined by fitting a 4-parameter sigmoidal concentration response model.

[3] = target: KRAS G12D binding to BRAF (Homo sapiens (Human), UniProt P01116+P62937, G12D); assay: KRAS-BRAF with CYPA (500 nM) interaction assay (TR-FRET), G12D; type: biochemical
Chain of KRAS G12D binding to BRAF (P01116-2 other isoform, or with tags, fused parts or gaps G12D): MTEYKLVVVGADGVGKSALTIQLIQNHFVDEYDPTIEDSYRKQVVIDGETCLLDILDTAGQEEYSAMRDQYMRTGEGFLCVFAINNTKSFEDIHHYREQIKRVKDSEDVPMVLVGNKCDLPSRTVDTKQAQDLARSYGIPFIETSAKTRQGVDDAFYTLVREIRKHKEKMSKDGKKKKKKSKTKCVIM
Chain of KRAS G12D binding to BRAF (P62937 whole entry): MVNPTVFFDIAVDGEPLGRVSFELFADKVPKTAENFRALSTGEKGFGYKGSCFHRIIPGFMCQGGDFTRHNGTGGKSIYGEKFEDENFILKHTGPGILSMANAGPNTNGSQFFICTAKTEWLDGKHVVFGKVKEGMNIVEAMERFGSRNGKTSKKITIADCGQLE
Protocol: (§6) In this example, TR-FRET was also used to measure the compound or compound-CYPA dependent disruption of the KRAS G12C-BRAF complex. This protocol was also used to measure disruption of KRAS G12D or KRAS G12V binding to BRAF by a compound of the invention, respectively. In assay buffer containing 25 mM HEPES PH=7.4 (4-(2-hydroxyethyl)-1-piperazineethanesulfonic acid, Thermo, 15630080), 0.002% Tween20, 0.1% BSA, 100 mM NaCl, 5 mM MgCl2, 10 μM GMPPNP (Guanosine 5′-[β,γ-imido]triphosphate trisodium salt hydrate, Sigma, G0635), […] 384-well assay plate at final concentrations of 50 nM, 6.25 nM and 1 nM, respectively. Compound was present in plate wells as a 16-point 3-fold dilution series starting at a final concentration of 10 μM and incubated for 3 hours. A mixture of MAb Anti-6His-XL665 (Cisbio, 61HISXLB) and Mab anti-GST-TB cryptate (Cisbio, 61GSTTLB) was then added at a final concentration of 6.67 nM and 0.21 nM, respectively, and the plate was incubated for an additional 1.5 hours. TR-FRET signal was read on a PHERstar FSX microplate reader (Ex320 nm, Em 665/615 nm). Compounds that facilitate disruption of the KRAS-BRAF complex were identified as those eliciting a decrease in the TR-FRET ratio relative to DMSO control wells.

[4] = target: KRAS G12V binding to BRAF (Homo sapiens (Human), UniProt P01116+P62937, G12V); assay: KRAS-BRAF with CYPA (500 nM) interaction assay (TR-FRET), G12V; type: biochemical
Chain of KRAS G12V binding to BRAF (P01116-2 other isoform, or with tags, fused parts or gaps G12V): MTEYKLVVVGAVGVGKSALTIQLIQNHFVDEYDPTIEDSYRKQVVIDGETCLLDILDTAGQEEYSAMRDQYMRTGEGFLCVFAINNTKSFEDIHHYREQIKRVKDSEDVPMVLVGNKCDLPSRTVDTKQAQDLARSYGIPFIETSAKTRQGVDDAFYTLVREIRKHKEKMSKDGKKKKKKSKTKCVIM
Chain of KRAS G12V binding to BRAF (P62937 whole entry): as the sequence (P62937 whole entry) above
Protocol: In this example, TR-FRET was also used to measure the compound or compound-CYPA dependent disruption of the KRAS G12C-BRAF complex. This protocol was also used to measure disruption of KRAS G12D or KRAS G12V binding to BRAF by a compound of the invention, respectively. In assay buffer containing 25 mM HEPES PH=7.4 (4-(2-hydroxyethyl)-1-piperazineethanesulfonic acid, Thermo, 15630080), 0.002% Tween20, 0.1% BSA, 100 mM NaCl, 5 mM MgCl2, 10 μM GMPPNP (Guanosine 5′-[β,γ-imido]triphosphate trisodium salt hydrate, Sigma, G0635), […], GMPPNP loaded 6His-KRAS proteins, and […], 6.25 nM and 1 nM, respectively. Compound was present in plate wells as a 16-point 3-fold dilution series starting at a final concentration of 10 μM and incubated for 3 hours. A mixture of MAb Anti-6His-XL665 (Cisbio, 61HISXLB) and Mab anti-GST-TB cryptate (Cisbio, 61GSTTLB) was then added at a final concentration of 6.67 nM and 0.21 nM, respectively, and the plate was incubated for an additional 1.5 hours. TR-FRET signal was read on a PHERstar FSX microplate reader (Ex320 nm, Em 665/615 nm). Compounds that facilitate disruption of the KRAS-BRAF complex were identified as those eliciting a decrease in the TR-FRET ratio relative to DMSO control wells.

SW620 (ATCC-CCL-227) = assay: Cell viability assay, G12V (SW620); type: cell-based, human; settings: Homo sapiens, SW-620; KRAS cell viability, SW620, 72 hrs, Cell Counting Kit-8
Protocol: as §1, §2

[5] = test system: phosphorylation of ERK, KRAS G12V in SW620; assay: pERK inhibition assay, KRAS G12V; type: cell-based, human; settings: Homo sapiens, SW-620, SW620, 4 hours
Protocol: as §3, §4, §5

[6] = test system: AGS (ATCC-CRL-1739) cells; assay: Cell viability assay, G12D (AGS); type: cell-based, human; settings: Homo sapiens, KRAS cell viability, 72 hrs, Cell Counting Kit-8
Protocol: as §1, §2

KRAS G12C-BRAF complex = KRAS G12C-BRAF complex (Homo sapiens (Human), UniProt P01116+P62937, G12C); assay: KRAS-BRAF with CYPA (500 nM) interaction assay (TR-FRET), G12C; type: biochemical
Chain of KRAS G12C-BRAF complex (P01116-2 other isoform, or with tags, fused parts or gaps G12C): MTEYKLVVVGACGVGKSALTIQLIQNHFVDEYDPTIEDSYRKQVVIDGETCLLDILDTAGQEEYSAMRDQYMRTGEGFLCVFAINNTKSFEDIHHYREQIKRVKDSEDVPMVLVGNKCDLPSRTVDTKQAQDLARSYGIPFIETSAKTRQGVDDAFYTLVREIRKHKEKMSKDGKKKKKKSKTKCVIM
Chain of KRAS G12C-BRAF complex (P62937 whole entry): as the sequence (P62937 whole entry) above
Protocol: as §6

SMILES | IC50 [1] [nM] | IC50 [2] [nM] | IC50 [3] [nM] | IC50 [4] [nM] | IC50 (SW620 (ATCC-CCL-227)) [nM] | IC50 [5] [nM] | IC50 [6] [nM] | IC50 (KRAS G12C-BRAF complex) [nM]
CCn1c(-c2cc(N3CCN(C)CC3)cnc2[C@H](C)OC)c2c3cc(c(F)cc31)-c1csc(n1)C[C@H](NC(=O)[C@H](C(C)C)N1CCCC3(CCN(C(=O)[C@H](F)Cl)CC3)C1=O)C(=O)N1CCC[C@H](N1)C(=O)OCC(C)(C)C2 (atropisomer, axis not shown; (M)) [Example 36, (2S)-2-[9-[(2R)-2-chloro-2-fluoro-acetyl]-1-oxo-2,9-diazaspiro[5.5]undecan-2-yl]-N-[(7S,13S)-21-ethyl-24-fluoro-(20M)-20-[2-[(1S)-1-methoxyethyl]-5-(4-methylpiperazin-1-yl)-3-pyridyl]-17,17-dimethyl-8,14-dioxo-15-oxa-4-thia-9,21,27,28-tetrazapentacyclo[17.5.2.1^2,5.1^9,13.0^22,26]octacosa-1(25),2,5(28),19,22(26),23-hexaen-7-yl]-3-methyl-butanamide] | < 1 | 3 | 3940 | > 10000 | 132 | 13 | 30 | 38
CO[C@@H](C)c1ncc(N2CCN(CC(F)(F)F)CC2)cc1-c1c2c3cc(c(F)cc3n1CC(F)(F)F)-c1csc(n1)C[C@H](NC(=O)[C@H](C(C)C)N1CCC3(CCN(C(=O)[C@H](F)Cl)CC3)C1=O)C(=O)N1CCC[C@H](N1)C(=O)OCC(C)(C)C2 (atropisomer, axis not shown; (M)) [Example 47, (2S)-2-[8-[(2R)-2-chloro-2-fluoro-acetyl]-1-oxo-2,8-diazaspiro[4.5]decan-2-yl]-N-[(7S,13S)-24-fluoro-(20M)-20-[2-[(1S)-1-methoxyethyl]-5-[4-(2,2,2-trifluoroethyl)piperazin-1-yl]-3-pyridyl]-17,17-dimethyl-8,14-dioxo-21-(2,2,2-trifluoroethyl)-15-oxa-4-thia-9,21,27,28-tetrazapentacyclo[17.5.2.1^2,5.1^9,13.0^22,26]octacosa-1(25),2,5(28),19,22(26),23-hexaen-7-yl]-3-methyl-butanamide] | 30 | 26 | > 10000 | > 10000 | > 5000 | 176 | > 5000 | 79
CO[C@@H](C)c1ncc(N2CCN(CC(F)(F)F)CC2)cc1-c1c2c3cc(c(F)cc3n1CC(F)(F)F)-c1csc(n1)C[C@H](NC(=O)[C@H](C(C)C)N1CC[C@@]3(CCN(C(=O)[C@H](F)Cl)C3)C1=O)C(=O)N1CCC[C@H](N1)C(=O)OCC(C)(C)C2 (atropisomer, axis not shown) [Example 43, (2S)-2-[(5R)-7-[(2R)-2-chloro-2-fluoro-acetyl]-1-oxo-2,7-diazaspiro[4.4]nonan-2-yl]-N-[(7S,13S)-24-fluoro-20-[2-[(1S)-1-methoxyethyl]-5-[4-(2,2,2-trifluoroethyl)piperazin-1-yl]-3-pyridyl]-17,17-dimethyl-8,14-dioxo-21-(2,2,2-trifluoroethyl)-15-oxa-4-thia-9,21,27,28-tetrazapentacyclo[17.5.2.1^2,5.1^9,13.0^22,26]octacosa-1(25),2,5(28),19,22(26),23-hexaen-7-yl]-3-methyl-butanamide] | < 1 | 6 | 2200 | 1690 | 171 | 44 | 67 | 22
CCn1c(-c2cc(N3CCN(CC(F)(F)F)CC3)cnc2[C@H](C)OC)c2c3cc(c(F)cc31)-c1csc(n1)C[C@H](NC(=O)[C@H](C(C)C)N1CCC3(CCN(C(=O)[C@H](F)Cl)CC3)C1=O)C(=O)N1CCC[C@H](N1)C(=O)OCC(C)(C)C2 (atropisomer, axis not shown; (M)) [Example 39, (2S)-2-[8-[(2R)-2-chloro-2-fluoro-acetyl]-1-oxo-2,8-diazaspiro[4.5]decan-2-yl]-N-[(7S,13S)-21-ethyl-24-fluoro-(20M)-20-[2-[(1S)-1-methoxyethyl]-5-[4-(2,2,2-trifluoroethyl)piperazin-1-yl]-3-pyridyl]-17,17-dimethyl-8,14-dioxo-15-oxa-4-thia-9,21,27,28-tetrazapentacyclo[17.5.2.1^2,5.1^9,13.0^22,26]octacosa-1(25),2,5(28),19,22(26),23-hexaen-7-yl]-3-methyl-butanamide] | < 1 | 6 | > 10000 | > 10000 | 184 | 44 | 112 | 104
